These results are taken from patent publication US11596639B2, “Substituted indole Mcl-1 inhibitors” (Vanderbilt University, priority 2016, dated 2023).

One assay addresses Mcl-1 (Homo sapiens (Human), UniProt Q07820). In words: Fluorescence polarization anisotropy (FPA) competition assay, FITC-Bak or FITC-Bim BH3 peptide. It counts as binding. As to conditions: read-out: Ki for Inhibition of Mcl-1 by FPA assay.
Assay [1] deals with H929 human cancer cell lines. Description: Cellular viability / proliferation (Cell TiterGlo, 72 h). It counts as cell-based. Summed up:
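Cells were seeded at 1,000 cells/well in medium with 10% FBS and dosed 24 h later with a 2-fold serial dilution of compound (top concentration 50 μM, final DMSO <1%).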

Setting [2] is: Homo sapiens, NCI-H929, 72 h, read-out: GI50 on cellular proliferation of H929 human cancer cell lines, H929 cells, 72 h, Cell TiterGlo, 10% FBS.
Setting [3] is: H929 cells, 72 h, Cell TiterGlo, 10% FBS, read-out: GI50 on cellular proliferation of H929 human cancer cell lines.

Each structure is given as a SMILES string. Like-named read-outs stand apart in the source and are kept apart here. Bounds are passed on as bounds.

Chain of Mcl-1 (Q07820 172-327): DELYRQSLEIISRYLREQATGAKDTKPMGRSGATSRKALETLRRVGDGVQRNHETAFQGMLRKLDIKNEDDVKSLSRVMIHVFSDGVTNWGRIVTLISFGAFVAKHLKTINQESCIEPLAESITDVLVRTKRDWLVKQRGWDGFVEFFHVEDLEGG

`Cc1cc(N2C[C@@H](C)n3c(c(CCCOc4cc(C)c(Cl)c(C)c4)c4ccc(Cl)c(-c5c(C)nn(C)c5C)c43)C2=O)c2c(c1)cc(C(=O)O)n2CC1CCOCC1` [Example 324, (R)-7-(7-Chloro-10-(3-(4-chloro-3,5-dimethylphenoxy)propyl)-4-methyl-1-oxo-6-(1,3,5-trimethyl-1H-pyrazol-4-yl)-3,4-dihydropyrazino[1,2-a]indol-2(1H)-yl)-5-methyl-1-((tetrahydro-2H-pyran-4-yl)methyl)-1H-indole-2-carboxylic acid]: the Ki at Mcl-1 was less than 1 nM. In addition, the GI50 in assay [1] (setting [2]) was found to be 610 nM.
For the molecule `COCCOc1ccc(N2C[C@@H](C)n3c(c(CCCOc4cc(C)c(Cl)c(C)c4)c4ccc(Cl)c(-c5c(C)nn(C)c5C)c43)C2=O)c2c1cc(C(=O)O)n2C` [Example 325, (M, R)-7-(7-Chloro-10-(3-(4-chloro-3,5-dimethylphenoxy)propyl)-4-methyl-1-oxo-6-(1,3,5-trimethyl-1H-pyrazol-4-yl)-3,4-dihydropyrazino[1,2-a]indol-2(1H)-yl)-4-(2-methoxyethoxy)-1-methyl-1H-indole-2-carboxylic acid], the Ki at Mcl-1 is less than 1 nM. Besides, the GI50 in assay [1] (setting [3]) was found to be 290 nM.
For the molecule `Cc1cc(OCCCc2c3n(c4c(-c5c(C)nn(C)c5C)c(Cl)ccc24)[C@H](C)CN(c2cccc4cc(C(=O)O)n(CC5CCCO5)c24)C3=O)cc(C)c1Cl` (stereo partly drawn) [Example 326, 7-((R)-7-Chloro-10-(3-(4-chloro-3,5-dimethylphenoxy)propyl)-4-methyl-1-oxo-6-(1,3,5-trimethyl-1H-pyrazol-4-yl)-3,4-dihydropyrazino[1,2-a]indol-2(1H)-yl)-1-((tetrahydrofuran-2-yl)methyl)-1H-indole-2-carboxylic acid], at Mcl-1, the Ki is less than 1 nM. In assay [1] (setting [2]), the GI50 came to 590 nM.
Turning to `Cc1cc(OCCCc2c3n(c4c(-c5c(C)nn(C)c5C)c(Cl)ccc24)[C@H](C)CN(c2ccc(OCc4ccccc4)c4c2cc(C(=O)O)n4C)C3=O)cc(C)c1Cl` [Example 327, (P, R)-7-(Benzyloxy)-4-(7-chloro-10-(3-(4-chloro-3,5-dimethylphenoxy)propyl)-4-methyl-1-oxo-6-(1,3,5-trimethyl-1H-pyrazol-4-yl)-3,4-dihydropyrazino[1,2-a]indol-2(1H)-yl)-1-methyl-1H-indole-2-carboxylic acid], the Ki at Mcl-1 was determined as 1.6 nM. In addition, the GI50 in assay [1] (setting [3]) is 3600 nM.
As for `COCCOc1cc(N2C[C@@H](C)n3c(c(CCCOc4cc(C)c(Cl)c(C)c4)c4ccc(Cl)c(-c5c(C)nn(C)c5C)c43)C2=O)c2cc(C(=O)O)n(C)c2c1` [Example 328, (M, R)-4-(7-Chloro-10-(3-(4-chloro-3,5-dimethylphenoxy)propyl)-4-methyl-1-oxo-6-(1,3,5-trimethyl-1H-pyrazol-4-yl)-3,4-dihydropyrazino[1,2-a]indol-2(1H)-yl)-6-(2-methoxyethoxy)-1-methyl-1H-indole-2-carboxylic acid], the Ki at Mcl-1 was less than 1 nM. The GI50 in assay [1] (setting [3]) amounted to 690 nM.
In the case of `Cc1cc(OCCCc2c3n(c4c(-c5c(C)nn(C)c5C)c(Cl)ccc24)[C@H](C)CN(c2cccc4cc(C(=O)O)n(Cc5ncccn5)c24)C3=O)cc(C)c1Cl` [Example 329, (R)-7-(7-Chloro-10-(3-(4-chloro-3,5-dimethylphenoxy)propyl)-4-methyl-1-oxo-6-(1,3,5-trimethyl-1H-pyrazol-4-yl)-3,4-dihydropyrazino[1,2-a]indol-2(1H)-yl)-1-(pyrimidin-2-ylmethyl)-1H-indole-2-carboxylic acid], the inhibition constant (Ki) at Mcl-1 was less than 1 nM. The GI50 in assay [1] (setting [2]) was 1100 nM.
The like results for `Cc1cc(N2C[C@@H](C)n3c(c(CCCOc4cc(C)c(Cl)c(C)c4)c4ccc(Cl)c(-c5c(C)nn(C)c5C)c43)C2=O)c2c(c1)cc(C(=O)O)n2CC1CCN(C)C1` (stereo partly drawn) [Example 330, 7-((R)-7-Chloro-10-(3-(4-chloro-3,5-dimethylphenoxy)propyl)-4-methyl-1-oxo-6-(1,3,5-trimethyl-1H-pyrazol-4-yl)-3,4-dihydropyrazino[1,2-a]indol-2(1H)-yl)-5-methyl-1-((1-methylpyrrolidin-3-yl)methyl)-1H-indole-2-carboxylic acid] were, in that order, 1.3 nM and 2300 nM.
For `Cc1cc(OCCCc2c3n(c4c(-c5c(C)nn(C)c5C)c(Cl)ccc24)[C@H](C)CN(c2cc(OCC4CCN(C)C4)cc4c2cc(C(=O)O)n4C)C3=O)cc(C)c1Cl` (stereo partly shown) [Example 331, 4-((M, R)-7-Chloro-10-(3-(4-chloro-3,5-dimethylphenoxy)propyl)-4-methyl-1-oxo-6-(1,3,5-trimethyl-1H-pyrazol-4-yl)-3,4-dihydropyrazino[1,2-a]indol-2(1H)-yl)-1-methyl-6-((1-methylpyrrolidin-3-yl)methoxy)-1H-indole-2-carboxylic acid], at Mcl-1, the Ki came to 1.1 nM. The GI50 in assay [1] (setting [3]) worked out at 2300 nM.
Consider `Cc1cc(N2C[C@@H](C)n3c(c(CCCOc4cc(C)c(Cl)c(C)c4)c4ccc(Cl)c(-c5c(C)nn(C)c5C)c43)C2=O)c2c(c1)cc(C(N)=O)n2C` [Example 332, (R)-7-(7-Chloro-10-(3-(4-chloro-3,5-dimethylphenoxy)propyl)-4-methyl-1-oxo-6-(1,3,5-trimethyl-1H-pyrazol-4-yl)-3,4-dihydropyrazino[1,2-a]indol-2(1H)-yl)-1,5-dimethyl-1H-indole-2-carboxamide], for which the Ki on Mcl-1 amounted to 2.8 nM. Further, the GI50 in assay [1] (setting [2]) is 670 nM.
For `Cc1cc(OCCCc2c3n(c4c(-c5c(C)nn(C)c5C)c(Cl)ccc24)[C@H](C)CN(c2cc(OCc4ccccc4)cc4cc(C(=O)O)n(C)c24)C3=O)cc(C)c1Cl` [Example 333, (M, R)-5-(Benzyloxy)-7-(7-chlor-10-(3-(4-chloro-3,5-dimethylphenoxy)propyl)-4 methyl-1-oxo-6-(1,3,5-trimethyl-1H-pyrazol-4-yl)-3,4-dihydropyrazino[1,2-a]indol-2(1H)-yl)-1-methyl-1H-indole-2-carboxylic acid], at Mcl-1, the Ki turned out to be 1.3 nM. The GI50 in assay [1] (setting [3]) worked out at 1100 nM.
Regarding `COc1cc(N2C[C@@H](C)n3c(c(CCCOc4cc(C)c(Cl)c(C)c4)c4ccc(Cl)c(-c5c(C)nn(C)c5C)c43)C2=O)c2cc(C(=O)O)n(C)c2c1` [Example 334, (M, R)-4-(7-Chloro-10-(3-(4-chloro-3,5-dimethylphenoxy)propyl)-4-methyl-1-oxo-6-(1,3,5-trimethyl-1H-pyrazol-4-yl)-3,4-dihydropyrazino[1,2-a]indol-2(1H)-yl)-6-methoxy-1-methyl-1H-indole-2-carboxylic acid], the inhibition constant (Ki) on Mcl-1 was less than 1 nM. Also, the GI50 in assay [1] (setting [3]) amounted to 1200 nM.
On to `Cc1cc(OCCCc2c3n(c4c(-c5c(C)nn(C)c5C)c(Cl)ccc24)[C@H](C)CN(c2cn(C)c4cc(C(=N)NO)ccc24)C3=O)cc(C)c1Cl` [Example 335, (R)-3-(7-Chloro-10-(3-(4-chloro-3,5-dimethylphenoxy)propyl)-4-methyl-1-oxo-6-(1,3,5-trimethyl-1H-pyrazol-4-yl)-3,4-dihydropyrazino[1,2-a]indol-2(1H)-yl)-N-hydroxy-1-methyl-1H-indole-6-carboximidamide], for which the Ki on Mcl-1 stood at 4.5 nM. Also, the GI50 in assay [1] (setting [2]) came to 910 nM.
The like results for `Cc1cc(N2C[C@@H](C)n3c(c(CCCOc4cc(C)c(Cl)c(C)c4)c4ccc(Cl)c(-c5c(C)nn(C)c5C)c43)C2=O)c2c(c1)c(C)c(C(=O)O)n2C` [Example 336, (R)-7-(7-Chloro-10-(3-(4-chloro-3,5-dimethylphenoxy)propyl)-4-methyl-1-oxo-6-(1,3,5-trimethyl-1H-pyrazol-4-yl)-3,4-dihydropyrazino[1,2-a]indol-2(1H)-yl)-1,3,5-trimethyl-1H-indole-2-carboxylic acid] were, in that order, less than 1 nM and 250 nM.
The like results for `Cc1nnc(-c2ccc3c(c2)c(N2C[C@@H](C)n4c(c(CCCOc5cc(C)c(Cl)c(C)c5)c5ccc(Cl)c(-c6c(C)nn(C)c6C)c54)C2=O)cn3C)o1` [Example 337, (R)-7-Chloro-10-(3-(4-chloro-3,5-dimethylphenoxy)propyl)-4-methyl-2-(1-methyl-5-(5-methyl-1,3,4-oxadiazol-2-yl)-1H-indol-3-yl)-6-(1,3,5-trimethyl-1H-pyrazol-4-yl)-3,4-dihydropyrazino[1,2-a]indol-1(2H)-one] were, in that order, 2.6 nM and 540 nM.
Regarding `Cc1cc(OCCCc2c3n(c4c(-c5c(C)nn(C)c5C)c(Cl)ccc24)[C@H](C)CN(c2cn(Cc4ccccn4)c4cc(C(=O)O)ccc24)C3=O)cc(C)c1Cl` [Example 338, (R)-3-(7-Chloro-10-(3-(4-chloro-3,5-dimethylphenoxy)propyl)-4-methyl-1-oxo-6-(1,3,5-trimethyl-1H-pyrazol-4-yl)-3,4-dihydropyrazino[1,2-a]indol-2(1H)-yl)-1-(pyridin-2-ylmethyl)-1H-indole-6-carboxylic acid], the Ki on Mcl-1 is less than 1 nM. Besides, in assay [1] (setting [2]), the GI50 came out at 2000 nM.
On to `Cc1cc(N2C[C@@H](C)n3c(c(CCCOc4cc(C)c(Cl)c(C)c4)c4ccc(Cl)c(-c5c(C)ncnc5C)c43)C2=O)c2c(c1)c(C)c(C(=O)O)n2C` [Example 339, (R)-7-(7-Chloro-10-(3-(4-chloro-3,5-dimethylphenoxy)propyl)-6-(4,6-dimethylpyrimidin-5-yl)-4-methyl-1-oxo-3,4-dihydropyrazino[1,2-a]indol-2(1H)-yl)-1,3,5-trimethyl-1H-indole-2-carboxylic acid], for which, at Mcl-1, the Ki was less than 1 nM. In addition, the GI50 in assay [1] (setting [2]) is 320 nM.
On to `Cc1cc(OCCCc2c3n(c4c(-c5c(C)nn(C)c5C)c(Cl)ccc24)[C@H](C)CN(c2cn(CCN(C)C)c4cc(C(=O)O)ccc24)C3=O)cc(C)c1Cl` [Example 340, (R)-3-(7-Chloro-10-(3-(4-chloro-3,5-dimethylphenoxy)propyl)-4-methyl-1-oxo-6-(1,3,5-trimethyl-1H-pyrazol-4-yl)-3,4-dihydropyrazino[1,2-a]indol-2(1H)-yl)-1-(2-(dimethylamino)ethyl)-1H-indole-6-carboxylic acid], for which the Ki at Mcl-1 was 4.4 nM. In assay [1] (setting [2]), the GI50 came out at 1800 nM.
